Assay results reported in article PMC10891682, “In Vitro Metabolism and In Vivo Pharmacokinetics Profiles of Hydroxy-α-Sanshool” (Toxics, 2024).
Where “and” joins values, the source holds several entries; their conditions need not be identical. Equal values may be shown once.

Experiment: Plasma protein binding (equilibrium dialysis)
Type: in vitro ADME
Conditions: human plasma
Method: PPB assays were carried out using the HTD 96-well equilibrium DIALYZERTM (Htdialysis, Gales Ferry, CT, USA). […] Then, the (solution A) was titrated with the (solution B) to pH 7.4 to prepare the dialysis buffer (solution C). The quench solution (solution D) consisted of Alprazolam (100 nM) and Ketoprofen (2 μM) in acetonitrile.
Total 3 μL of testing plasm samples (dissolved in DMSO, 200 μM) was mixed with 597 μL of plasma (the final concentration was 1 μM). The dialysis membranes were pre-soaked with water (60 min), then with 20% ethanol (20 min), and with dialysis buffer (20 min). Both the plasm samples and the dialysis buffer are 100 μL. Then, the dialysis plate was sealed and incubated at 37 °C with 5% CO2 at 100 rpm for 6 h. After 6 hours’ incubation, 50 μL of samples of the dialysis buffer and plasma samples were collected and re-added to a 96-well plate. Then, 50 μL of blank plasma was added to buffer samples, and 50 μL PBS was added to plasma samples. Subsequently, 300 μL quench solution was added to precipitate protein.
Peak Area Ratio buffer chamber means the conc for free fraction;
Peak Area Ratio plasma chamber means the conc for both free and bound fraction;
Peak Area Ratio total sample means the conc for starting sample before incubation.

Bound (%) (1 μM, 6 h dialysis, 37 °C): 98.53% and 98.53 ± 4.76%
Remaining at 6 h (%) (6 h): 110.91 ± 6.04%
recovery at 6 h, 1 μM (pH 7.4, 1 μM, 6 h dialysis, 37 °C): 92.6 ± 7.48%
fraction unbound at 6 h, 1 µM (pH 7.4, 1 μM, 6 h dialysis, 37 °C, read-out: Fu (%), unbound fraction): 0.0147 ± 0.0068
SMILES: CC(=O)N1CCN(c2ccc(OCC3COC(Cn4ccnc4)(c4ccc(Cl)cc4Cl)O3)cc2)CC1 (stereo not shown) [Ketoconazole]
